# Data published in patent US12076334B2, “Pharmaceutical composition comprising adenosine derivative for prevention and treatment of retinal disease or optic nerve disease” (FUTURE MEDICINE CO., LTD., priority 2017, dated 2024).
# Read-outs that look alike come from different tables or passages of the source.
# How the values were obtained:
# [1] = system: photoreceptor cells derived from the mouse retina; test: Mitochondrial membrane potential analysis (JC-1, flow cytometer); assay type: cell-based; settings: for R2 (cell distribution, JC-1 flow cytometry): normal control 13.78 ± 1.12; for R1 (cell distribution, JC-1 flow cytometry): normal control 86.22 ± 1.12
# Procedure: The prepared solution was stored at −20° C. until use. In addition, 10 mg of CCCP was dissolved in 1 mL of DMSO to prepare a 50 mM CCCP solution. The prepared solution was stored at −20° C. until use. Treatment of the test material was performed after diluting with a serum-free cell culture medium in 1:1000 (v/v). The control group was treated after diluting with DMSO in 1:1000 v/v).
# Intracellular mitochondrial cell membrane potential was analyzed using JC-1 reagent. […] Thereafter, […] of JC-1 was treated and incubated for 30 minutes.
# [2] = system: photoreceptor cells derived from mouse retina; test: Immunoblot of angiogenesis- and inflammation-related proteins in HMGB-1-treated photoreceptor cells; assay type: cell-based; settings: 24 h
# Procedure: (§1) Compound A to be used as a test material was prepared by dissolving in DMSO. The prepared solution was stored at −20° C. until use. Treatment of the test material was treated after diluting to 1:1000 (v/v) in a serum-free cell culture medium. The control group was treated after diluting to 1:1000 (v/v) in DMSO.
# In order to confirm the efficacy of the test material in reactions related to angiogenesis and inflammatory response of photoreceptor cells derived from mouse retina, cells cultured for 24 hours under various conditions were recovered and intracellular proteins were extracted using a PRO-PREP protein extraction kit. Quantification of the extracted protein was measured using a BCA protein assay kit. 40 μg of protein was separated by 10% SDS-PAGE and then attached to the PVDF membrane. The protein-attached membrane was reacted with TBST (Tris-buffered saline with 0.1% Tween-20) containing 5% skim milk for 30 minutes and the primary antibody and secondary antibody were reacted in sequence. The protein expression level was confirmed by photographing using a Fusion Fximage acquisition system. The protein expression level was analyzed by relative values using ImageJ.
# In relation to high mobility group box 1 (HMGB-1), it has been reported that the expression of HMGB-1 was increased when pressure was applied to photoreceptor cells derived from the mouse retina, and when HMGB-1 was treated to photoreceptor cells, angiogenesis-related factors and inflammatory responses increase (Bohm M R et al., Lab Invest, 96, 409-427, 2016). Accordingly, in the present disclosure, the efficacy of adenosine derivatives against angiogenic response and inflammatory response according to damage to photoreceptor cells was verified based on the above reference.
# [3] = system: photoreceptor cells derived from mouse retina; test: ELISA of intracellular inflammatory cytokines (TNFα, IL-1β, IL-6) in HMGB-1-treated photoreceptor cells; assay type: cell-based; settings: increased by HMGB-1, 24 h
# Procedure: as §1
# In order to confirm the efficacy of the test material in reactions related to angiogenesis and inflammatory response of photoreceptor cells derived from mouse retina, cells cultured for 24 hours under various conditions were recovered and intracellular proteins were extracted using a PRO-PREP protein extraction kit. Quantification of the extracted protein was measured using a BCA protein assay kit. Quantitative analysis of inflammatory cytokines (TNFα, IL-1β, IL-6) present in the cells was analyzed with each ELISA kit.
# [4] = system: mouse retina-derived photoreceptor cell; test: Immunoblot of apoptosis-related proteins in glutamic acid-treated photoreceptor cells; assay type: cell-based
# Procedure: (§2) Compound A to be used as a test material was prepared by dissolving in DMSO. The prepared solution was stored at −20° C. until use. In addition, 10 mg of CCCP was dissolved in 1 mL of DMSO to prepare a 50 mM CCCP solution. The prepared solution was stored at −20° C. until use. Treatment of the test material was performed after diluting with a serum-free cell culture medium in 1:1000 (v/v). The control group was treated after diluting with DMSO in 1:1000 v/v).
# In order to confirm the efficacy of a test material for angiogenesis-related response and inflammatory response of a mouse retina-derived photoreceptor cell, cells cultured for 24 hours under various conditions were collected and intracellular protein was extracted by using a PRO-PREP protein extraction kit. Quantification of the extracted protein was measured using a BCA protein assay kit. 40 μg of protein was separated by 10% SDS-PAGE and then attached to a PVDF membrane. The protein-attached membrane was reacted with Tris-buffered saline with 0.1% Tween-20 (TBST) containing 5% skim milk for 30 minutes, followed by reactions of primary and secondary antibodies in sequence. The protein expression level was confirmed using photograph by a Fusion Fximage acquisition system. The protein expression level was analyzed by expressing as a relative value using ImageJ.
# [5] = system: photoreceptor cells derived from the mouse retina; test: Cell protective effect against glutamic acid-induced cell death (cell viability); assay type: cell-based; settings: n=6, read-out: EC50 (50% effective concentration), protection from glutamic acid-induced apoptosis
# Procedure: as §2
# This experimental result means that Compound A has a protective effect against glutamic acid-induced apoptosis.
# caspase 8 = test: Caspase 8 activity assay (Caspase-Glo 8); assay type: cell-based, mouse; settings: pretreatment 1 hour, then 5 mM glutamic acid 24 hours
# Procedure: (§3) The activity of intracellular caspase 8 was analyzed by Caspase-Glo 8 assay system. […] After adding the kit solution in the same amount as the cell culture medium and reacting for 1 hour, the relative activity was analyzed by measuring the amount of generated luminescence through a microplate reader.
# caspase 3/7 = test: Caspase 3/7 activity assay (Caspase-Glo 3/7); assay type: cell-based, mouse; settings: pretreatment 1 hour, then 5 mM glutamic acid 24 hours
# Procedure: as §3, with “3/7” for “8”
# [6] = system: photoreceptor cells derived from mouse retina; test: ELISA of VEGF in medium of HMGB-1-treated photoreceptor cells; assay type: cell-based; settings: increased by HMGB-1; Compound A 0.1 μM or more; 24 h
# Procedure: as §1
# In order to confirm the efficacy of the test material in reactions related to angiogenesis of photoreceptor cells derived from mouse retina, the medium of cells cultured for 24 hours under various conditions was collected after centrifugation. Quantitative analysis of VEGF present in the medium was analyzed with the Mouse VEGF Quantikine ELISA Kit.
# [7] = system: photoreceptor cells derived from the mouse retina; test: TUNEL assay and DAPI staining of glutamic acid-induced apoptosis; assay type: cell-based; settings: pretreated 1 μM 1 hour, then 5 mM glutamic acid 8 hours; vs glutamic acid only
# Procedure: as §2
# Quantitative analysis of apoptosis cells was analyzed by DeadEnd™ Fluorometric TUNEL System. […] Cells were washed twice with PBS and fixed with 10% formalin for 15 minutes. Fixed cells were exposed to 0.1% Triton X-100 for 10 minutes. After the cells were reacted with dUTP containing fluorescence, the cut DNA portion was stained and then fixed on a slide with a mounting solution containing DAPI. The stained cells were observed through a fluorescence microscope.
# [8] = system: photoreceptor cells derived from mouse retina; test: RT-PCR mRNA expression of angiogenesis- and inflammation-related factors in HMGB-1-treated photoreceptor cells; assay type: cell-based; settings: increased by HMGB-1, 6 h
# Procedure: as §1
# In order to confirm the efficacy of the test material in reactions related to angiogenesis and inflammatory response of photoreceptor cells derived from mouse retina, cells cultured for 6 hours under various conditions were treated with TRIzol solution to isolate total RNA in cells. After the cDNA was synthesized using specific primers for the target gene (Table 2) and reverse transcriptase in the isolated total RNA, expression of the related factors was confirmed. mRNA expression levels were analyzed by expressing as relative values using ImageJ software.
# [9] = Cytotoxicity of glutamic acid (cell viability, cell proliferation assay kit); assay type: cell-based; settings: mouse; 0-9 mM, 24 hours incubation
# [10] = cells treated with the agent only (glutamic acid 5 mM 6 hours, or CCCP)
# [11] = HMGB-1 (5 μg/mL), Compound A 2 μM
# [12] = HMGB-1 (5 μg/mL), Compound A at least 0.1 μM
# [13] = HMGB-1 (5 μg/mL), Compound A at least 0.5 μM
# [14] = increased by HMGB-1 (5 μg/mL), Compound A at least 0.5 μM
# [15] = changed by glutamic acid, pretreated with Compound A
# [16] = increased by glutamic acid, pretreated with Compound A
# [17] = pretreatment of Compound A, glutamic acid-treated cells
# [18] = pretreated with 1 μM Compound A 1 hour, then 5 mM glutamic acid 6 hours
compound,measurement,setting,value
N#CC(C#N)=NNc1cccc(Cl)c1 [CCCP],"R2 (cell distribution, JC-1 flow cytometry)",[1]; [10],90.58 ± 1.48
same,"R1 (cell distribution, JC-1 flow cytometry)",[1]; [10],9.42 ± 1.48
"O[C@@H]1[C@H](O)CS[C@H]1n1cnc2c(NCc3cccc(Cl)c3)nc(Cl)nc21 [Compound A, (2R,3R,4S)-2-(2-chloro-6-(3-chlorobenzylamino)-9H-purin-9-yl)tetrahydrothiophene-3,4-diol]",ANG1 protein expression,[2]; [11],significantly increased
same,ICAM1 protein expression,[2]; [11],significantly decreased
same,VCAM1 protein expression,[2]; [11],significantly decreased
same,ANG2 protein expression,[2]; [12],significantly decreased
same,MMP9 protein expression,[2]; [12],significantly decreased
same,VEGFR1 protein expression,[2]; [12],significantly decreased
same,COX2 protein expression,[2]; [13],significantly reduced
same,MMP2 protein expression,[2]; [13],significantly reduced
same,VEGF protein expression,[2]; [14],significantly reduced
same,VEGFR2 protein expression,[2]; [14],significantly reduced
same,amount of TNFα in cells (ELISA),[3]; Compound A 0.1 μM or higher,significantly reduced
same,amount of IL-1β in cells (ELISA),[3]; Compound A 1 μM or higher,significantly reduced
same,amount of IL-6 in cells (ELISA),[3]; Compound A 1 μM or higher,significantly reduced
same,BID protein expression,[4]; [15],recovered to the same expression level as the normal group
same,Bad protein expression,[4]; [15],recovered to the same expression level as the normal group
same,Bcl2 protein expression,[4]; [15],recovered to the same expression level as the normal group
same,pBad protein expression,[4]; [15],recovered to the same expression level as the normal group
same,pBcl2 protein expression,[4]; [15],recovered to the same expression level as the normal group
same,RIP protein expression,"[4]; decreased by glutamic acid, pretreated with Compound A",increased again in a concentration-dependent manner
same,caspase 8 protein expression,[4]; [16],significantly decreased
same,cleaved caspase 3 protein expression,[4]; [16],significantly decreased
same,cleaved caspase 9 protein expression,[4]; [16],significantly decreased
same,expression of AIF in the nucleus,[4]; [17],decreased significantly
same,expression of cytochrome c in the cytoplasm,[4]; [17],decreased significantly
same,EC50,[5]; pretreatment for 30 min,0.31 ± 0.08 µM
same,EC50,[5]; pretreatment for 1 hour,0.35 ± 0.06 µM
same,activity of caspase 8,caspase 8,inhibited in a concentration-dependent manner
same,"R2 (cell distribution, JC-1 flow cytometry)",[1]; [18],28.30 ± 1.60
same,"R1 (cell distribution, JC-1 flow cytometry)",[1]; [18],71.70 ± 1.60
same,activity of caspase 3/7,caspase 3/7,inhibited in a concentration-dependent manner
same,"amount of VEGF (ELISA, medium)",[6],significantly decreased
same,number of TUNEL-positive nuclei,[7],significantly reduced
same,COX2 mRNA expression,[8]; Compound A 0.1 μM or more,significantly inhibited
same,IL-6 mRNA expression,[8]; Compound A 0.1 μM or more,significantly inhibited
same,VEGF mRNA expression,[8]; Compound A 0.1 μM or more,significant decrease
same,VEGFR1 mRNA expression,[8]; Compound A 0.1 μM or more,significant decrease
same,MMP9 mRNA expression,[8]; Compound A 0.5 μM or more,significantly reduced
same,TNFα mRNA expression,[8]; Compound A 0.5 μM or more,significantly reduced
same,VEGFR2 mRNA expression,[8]; Compound A 0.5 μM or more,significantly decreased
same,ICAM1 mRNA expression,[8]; Compound A 1 μM or more,significantly reduced
same,MMP2 mRNA expression,[8]; Compound A 1 μM or more,significantly reduced
same,VCAM1 mRNA expression,[8]; Compound A 1 μM or more,significantly reduced
N[C@@H](CCC(=O)O)C(=O)O [glutamic acid],IC50 at 24 h,[9],5100 ± 500 µM
same,"R2 (cell distribution, JC-1 flow cytometry)",[1]; [10],63.87 ± 10.42
same,"R1 (cell distribution, JC-1 flow cytometry)",[1]; [10],36.13 ± 10.42
